Assay results: US20240285540A1, “FUNCTIONAL THERAPEUTIC INDEX IN THE TREATMENT OF PERIPHERAL IMMUNE DYSFUNCTION” (priority 2023, published 2024)
Marks after values point to notes of the source that are not given here. Primed or numbered codes have the meaning given here. Ends that are not written are not given here. bexarotene = RXR ligand attached at the C-terminus; adapalene = RARβ/γ ligand, attached at C-terminus; GW7647″ = PPARα ligand, attached at C-terminus; GW4064 = FXR ligand, attached at C-terminus

Tested on: C2C12 myoblast cell line
Assay: C2C12 myoblast differentiation assay (creatine kinase)
Type: cell-based
Conditions: 96 hours, relative to imm3SVD peptide (=100)
Experimental: C2C12 myoblast cell line (ATCC, Manassas, VA) was cultured in DMEM medium supplemented with 10% FBS and 1% penicillin/streptomycin. For differentiation, cells were cultured in the same medium, except that 10% FBS was replaced by 2% horse serum. Peptides and NR ligands were added at the indicated concentrations and cells were harvested 96 hours later for assay. Cell extracts were assayed for creatine kinase (CK) per mg protein. CK was measured using the ECPK-100 kit from BioAssay Systems (Hayward, CA). Protein was assayed using the BCA protein assay kit from Thermofisher Scientific (Waltham, MA). CK activities and p values were expressed relative to imm3SVD peptide (=100). **p<0.01; *p<00.05.

[1] = Peptide 0.66 uM, no added free ligand

Row | Molecule | CK (units/mg) (Added ligand 2 uM together with imm3SVD peptide 0.66 uM) | CK (units/mg) [1]
1 | CN1c2ccccc2N=C(c2ccc(C(=O)O)cc2)c2cc3c(cc21)C(C)(C)CCC3(C)C [HX600] | 30.3 ± 16.0* % of imm3SVD peptide | –
2 | imm3adp: KKGFYKKKQCRPSKGRKRGFCWSVDK C-terminally liganded with adapalene (RARß/γ ligand) (KKGFYKKKQCRPSKGRKRGFCWSVDK-adapalene; cysteine pairing not given here) | – | 185.8 ± 23.5** % of imm3SVD peptide
3 | imm3bex: SDKKGFYKKKQCRPSKGRKRGFCWSVDK C-terminally liganded with bexarotene (RXR ligand) (SDKKGFYKKKQCRPSKGRKRGFCWSVDK-bexarotene; cysteine pairing not given here) | – | 121.0 ± 6.6* % of imm3SVD peptide
4 | imm3fxr: SDKKGFYKKKQCRPSKGRKRGFCWSVDK C-terminally liganded with GW4064 (FXR ligand) (SDKKGFYKKKQCRPSKGRKRGFCWSVDK-GW4064; cysteine pairing not given here) | – | 136.8 ± 19.6* % of imm3SVD peptide
5 | imm3ppa: SDKKGFYKKKQCRPSKGRKRGFCWSVDK C-terminally liganded with GW7647 (PPARα ligand) (SDKKGFYKKKQCRPSKGRKRGFCWSVDK-{GW7647″}; cysteine pairing not given here) | – | 155.9 ± 18.8** % of imm3SVD peptide
